Where two headings read alike, the source gives them in different places.

For one series, the system named is AKR1C3. The settings on record: reported in literature; cited from earlier work.
The conditions of series [1]: cited from earlier work; for AUC0-t / Cmax / T1/2 / Tmax: patients, mean.
The subject of series [2] is H460 cell line. Description: Cell proliferation inhibition by combining Naproxen or TH-3021 and AST-3424 in different sequence of administration (CTG). Particulars: for effect of subsequent addition on the efficacy of AST-3424: Group 3: added after 2 h AST-3424 pretreatment and washing. The format is cell-based, human. As for the experimental part:
The following are the different treatment methods. […] The plate was shaken gently to ensure uniform mixing, and placed in the incubator for 2 hours. […] The plate was shaken gently to ensure uniform mixing, and placed in the incubator for 2 hours. Subsequently, the plate was washed to remove the compound, and placed in the incubator at 37° C. with 5% CO2 for further 72 hours. […] The plate was shaken gently to ensure uniform mixing, and placed in the incubator for 2 hours. Subsequently, the plate was washed to remove the compounds, and placed in the incubator at 37° C. with 5% CO2 for 72 hours. […] The plate was shaken gently to ensure uniform mixing, and placed in the incubator for 2 hours. […] The plate was shaken gently to ensure uniform mixing, and placed in the incubator for 2 hours. Subsequently, the plate was washed to remove the compounds, and placed in the incubator at 37° C. with 5% CO2 for further 72 hours. […] The plate was shaken gently to ensure uniform mixing, and placed in the incubator for 2 hours. […] The plate was shaken gently to ensure uniform mixing, and placed in the incubator for 2 hours. Subsequently, the plate was washed to remove the compounds, and placed in the incubator at 37° C. with 5% CO2 for further 72 hours. b) Administrating single drug: after 24 hours of cell seeding, the compound was administered alone. […] The plate was shaken gently to ensure uniform mixing, and placed in the incubator at 37° C. with 5% CO2 for 2 hours. Subsequently, the compound was washed off, and each well was added with fresh medium. The plate was placed in the incubator at 37° C. with 5% CO2 for further 72 hours.

The test system of series [3] is H460 cell line. As to the kind of experiment: In vitro cell proliferation inhibition with the drug combination (CTG method). The format is cell-based, human. Particulars: combined with AST-3424. As for the experimental part:
• a) H460 cells (human non-small lung cancer cells, AKR1C3 enzyme highly expressed) were cultured in RPMI-1640 medium, added with 10% FBS and 1% double antibody, and placed at 37° C. and 5% CO2 for culturing.
• a) The cells were routinely cultured until the cell saturation was 80%-90%, and when the required quantity was reached, the cells were collected. • b) The cells were resuspended with the corresponding medium and cell counts were performed to prepare a cell suspension with appropriate density. • c) The cell suspension was added to a 96-well plate with 100 μL per well, and the cell density was 2,000 cells per well. • d) The cells were incubated overnight in an incubator at 37° C. with 5% CO2. 1.1.3 Treating Cells with Compound (72 Hours)
AST-3424 alone: after 24 hours of cell seeding, AST-3424 was administered alone. Specifically, each well was supplemented with 99 μL of growth medium, and then added with 1 μL of the prepared AST-3424 solution to form different concentrations of AST-3424. The plate was shaken gently to ensure uniform mixing, and placed in an incubator at 37° C. with 5% CO2.
The cell plates were placed in the incubator for 72 hours.
1.1.4 Treating Cells with Compound (2 Hours) • a) Administrating single drug: after 24 hours of cell seeding, AST-3424 was administered alone. Specifically, each well was supplemented with 99 μL of growth medium, and then added with 1 μL of the prepared AST-3424 solution to form different concentrations of AST-3424. The plate was shaken gently to ensure uniform mixing, and placed in the incubator for 2 hours. […] The plate was shaken gently to ensure uniform mixing. After the plate was placed in the incubator for 2 hours, 1 μL of the prepared AST-3424 solution was added to form different concentrations of AST-3424. The plate was shaken gently to ensure uniform mixing, and placed in the incubator at 37° C. with 5% CO2 for another 2 hours. Then, the supernatant was discarded, and the remainder was washed twice with growth medium and added with 200 μL of fresh medium.
1.1.6 Detecting with CTG Method • a) The cell plate to be tested was placed at room temperature to equilibrium for 30 minutes, and 100 μL of culture medium was discarded from each well. • b) 25 μL CTG reagent (CelltiterGlo kit) was added to each well. The plate was placed on a fast shaker to shake for 2 minutes, and then placed at room temperature away from light for 30 minutes. • c) The chemiluminescent signal value was read with multifunctional microplate reader at reading time of 1000 ms.
IC50 was calculated with GraphPad Prism 5 software, and the IC50 (half maximal inhibitory concentration) of the compound was obtained using the following nonlinear fitting formula: […]

Where [4] appears, read: OBI-3424 dose level 1 mg/m^2, infusion.
[5] abbreviates: OBI-3424 dose level 2 mg/m^2, infusion.
The mark [6] stands for this setting: OBI-3424 dose level 4 mg/m^2, infusion.
[7] abbreviates: OBI-3424 dose level 6 mg/m^2, infusion.
The mark [8] stands for this setting: OBI-3424 dose level 8 mg/m^2, infusion.
Where [9] appears, read: OBI-3424 dose level 10 mg/m^2, infusion.
Where [10] appears, read: OBI-3424 dose level 12 mg/m^2, infusion.
[11] abbreviates: OBI-3424 dose level 14 mg/m^2, infusion.

As to `CC1=C(CC(=O)O)c2cc(F)ccc2/C1=C\c1ccc([S+](C)[O-])cc1` (stereo not shown) [Sulindac], in the series on AKR1C3, the AKR1C3 inhibitory activity result was “have AKR1C3 inhibitory activity”.
`O=P(O)(N1CC1)N1CC1` [OBI-2660]: the “AUC0-t” value in series [1] (setting [4]) was 7.30 ng·h/mL; in series [1] (setting [5]), 10.00 ng·h/mL; in series [1] (setting [6]) it was 19.30 ng·h/mL; in series [1] (setting [7]) it was 27.40 ng·h/mL; in series [1] (setting [8]), 32.80 ng·h/mL; in series [1] (setting [9]), 29.20 ng·h/mL. Moreover, the results for the “AUC0-t” value in series [1] (setting [10]) and in series [1] (setting [11]) were 56.60 ng·h/mL and 45.60 ng·h/mL, respectively. Also, the “Cmax” value is listed as 1.70 ng/mL in series [1] (setting [4]); 2.30 ng/mL in series [1] (setting [5]); 5.00 ng/mL in series [1] (setting [6]); 6.80 ng/mL in series [1] (setting [7]); 8.50 ng/mL in series [1] (setting [8]); 10.10 ng/mL in series [1] (setting [9]). Further, the “Cmax” value is listed as 13.10 ng/mL in series [1] (setting [10]) and 11.20 ng/mL in series [1] (setting [11]). For the same molecule, the “T1/2” value in series [1] (setting [4]) is recorded as 3.08 h; in series [1] (setting [5]), 2.48 h; in series [1] (setting [6]), 2.00 h; in series [1] (setting [7]) it was 2.09 h; in series [1] (setting [8]) it was 1.87 h; in series [1] (setting [9]), 2.99 h. Besides, the results for the “T1/2” value in series [1] (setting [10]) and in series [1] (setting [11]) were 2.41 h and 2.46 h, respectively. Besides, the “Tmax” value in series [1] (setting [4]) is reported as 1.75 h; in series [1] (setting [5]), 1.67 h; in series [1] (setting [6]) it was 1.33 h; in series [1] (setting [7]), 1.75 h; in series [1] (setting [8]), 1.44 h; in series [1] (setting [9]), 1.67 h. Also, the “Tmax” value in series [1] (setting [10]) is on record as 1.53 h; in series [1] (setting [11]), 1.75 h. Also, the “accumulation of exposure (Cmax and AUC)” value in series [1] (between the two doses (Cycle 1 Day1 and Cycle 1 Day8)) is reported as “no accumulation of exposure”.
`COc1ccc2cc([C@H](C)C(=O)O)ccc2c1` [Naproxen, reference compound]: the “effect of subsequent addition on the efficacy of AST-3424” value in the series with H460 cell line [2] was “no longer affected the efficacy of AST-3424”. The “effect of the combination on the cell proliferation inhibitory activity of AST-3424” value in the series with H460 cell line [3] was “significantly affect”. Moreover, the AKR1C3 inhibitory activity result in the series on AKR1C3 is recorded as “have AKR1C3 inhibitory activity”.
Take `COc1ccc2c(c1)c(CC(=O)O)c(C)n2C(=O)c1ccc(Cl)cc1` [Indomethacin]: the AKR1C3 inhibitory activity entry in the series with AKR1C3 is “has AKR1C3 inhibitory activity”.
Take `Cc1ccc(Cl)c(Nc2ccccc2C(=O)O)c1Cl` [Meclofenamic Acid]: in the series on AKR1C3, the AKR1C3 inhibitory activity result was “have AKR1C3 inhibitory activity”.
In the case of `Cc1cccc(Nc2ccccc2C(=O)O)c1C` [Mefenamic acid], the AKR1C3 inhibitory activity entry with AKR1C3 was “have AKR1C3 inhibitory activity”.
Turning to `Cc1ccc(C(=O)c2ccc(CC(=O)O)n2C)cc1` [Tolmetin], the AKR1C3 inhibitory activity entry in the series on AKR1C3 was “have AKR1C3 inhibitory activity”.
For `O=C([O-])c1ccccc1O.[Na+]` [Sodium salicylate], the AKR1C3 inhibitory activity result in the series with AKR1C3 is reported as “have AKR1C3 inhibitory activity”.
In the case of `CC(=O)Oc1ccccc1C(=O)O` [Aspirin], the AKR1C3 inhibitory activity entry in the series on AKR1C3 is listed as “have AKR1C3 inhibitory activity”.
Regarding `CC(C(=O)O)c1cccc(Oc2ccccc2)c1` (stereo not shown) [Fenoprofen], the AKR1C3 inhibitory activity result in the series with AKR1C3 was “have AKR1C3 inhibitory activity”.
For the molecule `CC(=O)Nc1ccc(O)cc1` [Paracetamol], the AKR1C3 inhibitory activity entry in the series with AKR1C3 is given as “have AKR1C3 inhibitory activity”.
On to `CC(C(=O)O)c1ccc(-c2ccccc2)c(F)c1` (stereo not shown) [Flurbiprofen], for which the AKR1C3 inhibitory activity result in the series with AKR1C3 is recorded as “have AKR1C3 inhibitory activity”.
On to `O=C(O)Cc1ccccc1Nc1c(Cl)cccc1Cl` [Diclofenac], for which the AKR1C3 inhibitory activity entry with AKR1C3 is reported as “have AKR1C3 inhibitory activity”.
In the case of `O=C(N1CCOCC1)N1CCN(c2ccc(Cl)cc2Cl)CC1` [TH-3021, reference compound], in the series with H460 cell line [2], the “effect of subsequent addition on the efficacy of AST-3424” value was “no longer affected the efficacy of AST-3424”. The “difference in IC50 values of AST-3424 (fold)” value in the series on H460 cell line [2] (group 1 (TH-3021 pretreatment, washed off)) is on record as 6 fold; in the series on H460 cell line [2] (groups 2 and 4 (TH-3021 present together with AST-3424)), 200 fold. Further, in the series with AKR1C3, the AKR1C3 inhibitory activity result is reported as “specific inhibitor of AKR1C3”.
For `Cc1cc(CC(=O)O)n(C)c1C(=O)c1ccc(Cl)cc1` [Zomepirac], in the series with AKR1C3, the AKR1C3 inhibitory activity entry is listed as “have AKR1C3 inhibitory activity”.

A word on the Cmax: it is the maximum level reached in the sampled fluid or tissue. By Tmax is commonly meant the time at which the peak concentration occurs.

These data come from patent US20260130928A1, “COMBINATION OF AKR1C3 ACTIVATED ANTICANCER PRODRUG COMPOUND AND ANALGESIC DRUG FOR TREATING CANCER PATIENTS ACCOMPANIED BY PAIN” (ASCENTAWITS PHARMACEUTICALS, LTD., priority 2022, published 2026).
